Values quoted from earlier work in patent publication US6670392B2, “Compositions and methods for the prevention and treatment of human prostate cancer” (Bioadvantex Pharma Inc., priority 2001, dated 2003).

Conditions: synthetic dl-α-tocopherol as standard; cited from earlier work

## Cc1c(C)c2c(c(C)c1O)CC[C@@](C)(CCC[C@H](C)CCC[C@H](C)CCCC(C)C)O2 [d-α-tocopherol]
  bioactivity relative to synthetic dl-α-tocopherol: 1.49 times
